Test results from patent US20240287080A1 (IDEAYA Biosciences Inc., priority 2021, published 2024).

molecular target: T1, Pol theta (1-899) (Homo sapiens, UniProt O75417); assay: Pol theta ATPase activity, NADH oxidation-coupled enzymatic assay (ATPase NADH coupling: Standard Screening: hPolQ); assay type: biochemical; conditions: Pol theta (1-899) 5 nM, NADH oxidation-coupled ATPase assay; compounds of Table 3
T1 construct: Pol theta (1-899) (5 nM) in assay buffer
In short: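 NADH-coupled ATPase readout: 5 nM Pol theta (1-899) preincubated 15 min with 10-point compound series in Tris pH 7.80, KCl, MgCl2, DTT, BSA, Tween, glycerol, then 100 μM ATP, 300 nM 50-mer poly-dT ssDNA, NADH, PEP, LDH and PK added (stock levels). A340 followed 60 min; slopes fit four-parameter for IC50.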

T1 sequence (O75417 1-899): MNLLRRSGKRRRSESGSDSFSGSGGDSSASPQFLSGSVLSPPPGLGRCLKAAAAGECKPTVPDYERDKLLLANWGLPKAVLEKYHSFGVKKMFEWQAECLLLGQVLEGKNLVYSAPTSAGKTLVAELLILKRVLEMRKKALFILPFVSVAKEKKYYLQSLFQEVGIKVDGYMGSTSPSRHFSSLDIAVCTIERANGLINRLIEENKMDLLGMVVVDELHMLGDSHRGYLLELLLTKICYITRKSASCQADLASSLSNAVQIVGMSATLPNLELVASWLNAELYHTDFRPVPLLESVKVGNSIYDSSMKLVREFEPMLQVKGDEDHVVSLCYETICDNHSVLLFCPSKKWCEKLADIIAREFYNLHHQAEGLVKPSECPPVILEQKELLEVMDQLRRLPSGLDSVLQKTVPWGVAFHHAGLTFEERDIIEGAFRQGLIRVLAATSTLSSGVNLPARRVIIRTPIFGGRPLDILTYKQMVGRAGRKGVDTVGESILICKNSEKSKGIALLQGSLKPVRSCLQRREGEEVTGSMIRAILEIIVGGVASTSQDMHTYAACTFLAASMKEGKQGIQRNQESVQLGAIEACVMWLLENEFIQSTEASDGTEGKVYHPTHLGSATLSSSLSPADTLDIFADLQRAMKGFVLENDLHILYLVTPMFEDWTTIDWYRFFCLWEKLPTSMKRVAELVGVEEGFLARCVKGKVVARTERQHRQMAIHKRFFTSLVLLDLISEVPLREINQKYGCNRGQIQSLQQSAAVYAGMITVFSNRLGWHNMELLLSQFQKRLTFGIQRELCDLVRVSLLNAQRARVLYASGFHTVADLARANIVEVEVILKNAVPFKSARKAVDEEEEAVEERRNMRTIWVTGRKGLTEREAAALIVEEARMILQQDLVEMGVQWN

| Compound | IC50 [nM] |
| --- | --- |
| CCOc1cc(C(=O)Nc2nnc(OC)s2)c(-c2cc(Cl)ncc2OC)cn1 [Example 276, 2′-chloro-6-ethoxy-5′-methoxy-N-(5-methoxy-1,3,4-thiadiazol-2-yl)-[3,4′-bipyridine]-4-carboxamide] | ≤ 200 |
| COc1nnc(NC(=O)c2cnc(C)cc2-c2csc3cnccc23)s1 [Example 425, N-(5-methoxy-1,3,4-thiadiazol-2-yl)-6-methyl-4-{thieno[2,3-c]pyridin-3-yl}pyridine-3-carboxamide] | 500 to 1000 |
| COc1cnc(Br)cc1-c1cc(C)ncc1C(=O)Nc1nnc(O[C@H]2CCC[C@H](O)C2)s1 [Example 271, 2′-bromo-N-(5-(((1S,3S)-3-hydroxycyclohexyl)oxy)-1,3,4-thiadiazol-2-yl)-5′-methoxy-6-methyl-[4,4′-bipyridine]-3-carboxamide] | ≤ 200 |
| COc1cnc(C)c(F)c1-c1cc(C)ncc1C(=O)Nc1nnc(O[C@@H]2CCC[C@@H](O)C2)s1 (single isomer, unassigned) [Example 274] | ≤ 200 |
| COc1nnc(NC(=O)c2cnc(C)cc2-c2ccc(C(=O)O)c(F)c2)s1 [Example 465, 2-fluoro-4-(5-((5-methoxy-1,3,4-thiadiazol-2-yl)carbamoyl)-2-methylpyridin-4-yl)benzoic acid] | 1000 to 10000 |
| COc1nnc(NC(=O)c2cnc(C)cc2-c2ccc3c(c2)OC(F)(F)O3)s1 [Example 349, 4-(2,2-difluoro-2H-1,3-benzodioxol-5-yl)-N-(5-methoxy-1,3,4-thiadiazol-2-yl)-6-methylpyridine-3-carboxamide] | 1000 to 10000 |
| COc1nnc(NC(=O)c2cnc(C)cc2-c2ccc(S(=O)(=O)N(C)C)cc2)s1 [Example 382, 4-[4-(dimethylsulfamoyl)phenyl]-N-(5-methoxy-1,3,4-thiadiazol-2-yl)-6-methylpyridine-3-carboxamide] | 1000 to 10000 |
| COc1nnc(NC(=O)c2cnc(C)cc2-c2cnc(N)c(C#N)c2)s1 [Example 362, 6-amino-5-cyano-N-(5-methoxy-1,3,4-thiadiazol-2-yl)-6′-methyl-[3,4′-bipyridine]-3′-carboxamide] | 1000 to 10000 |
| COc1nnc(NC(=O)c2cnc(C)cc2-c2ccc3c(c2)COC3=O)s1 [Example 416, N-(5-methoxy-1,3,4-thiadiazol-2-yl)-6-methyl-4-(1-oxo-1,3-dihydro-2-benzofuran-5-yl)pyridine-3-carboxamide] | 1000 to 10000 |
| COc1nnc(NC(=O)c2cnc(C)cc2-c2ccc(F)cc2C)s1 [Example 428, 4-(4-fluoro-2-methylphenyl)-N-(5-methoxy-1,3,4-thiadiazol-2-yl)-6-methylpyridine-3-carboxamide] | 500 to 1000 |
| COc1nnc(NC(=O)c2cnc(C)cc2-c2ccncc2C)s1 [Example 406, N-(5-methoxy-1,3,4-thiadiazol-2-yl)-3′,6-dimethyl-[4,4′-bipyridine]-3-carboxamide] | 1000 to 10000 |
| COc1cnc(Br)cc1-c1cc(C)ncc1C(=O)Nc1nnc(O[C@H]2CC[C@@H](CO)CC2)s1 [Example 268, 2′-bromo-N-(5-(((1s,4s)-4-(hydroxymethyl)cyclohexyl)oxy)-1,3,4-thiadiazol-2-yl)-5′-methoxy-6-methyl-[4,4′-bipyridine]-3-carboxamide] | ≤ 200 |
| COc1ccc(-c2cc(C)ncc2C(=O)Nc2nnc(OC)s2)cc1 [Example 377, N-(5-methoxy-1,3,4-thiadiazol-2-yl)-4-(4-methoxyphenyl)-6-methylpyridine-3-carboxamide] | 1000 to 10000 |
| COc1nnc(NC(=O)c2cnc(C)cc2-c2cc(F)cc(F)c2)s1 [Example 337, 4-(3,5-difluorophenyl)-N-(5-methoxy-1,3,4-thiadiazol-2-yl)-6-methylpyridine-3-carboxamide] | 500 to 1000 |
| COc1nnc(NC(=O)c2cnc(C)cc2-c2cccc(S(N)(=O)=O)c2)s1 [Example 385, N-(5-methoxy-1,3,4-thiadiazol-2-yl)-6-methyl-4-(3-sulfamoylphenyl)pyridine-3-carboxamide] | 1000 to 10000 |
| COc1nnc(NC(=O)c2cnc(C)cc2-c2cn[nH]c2)s1 [Example 451, N-(5-methoxy-1,3,4-thiadiazol-2-yl)-6-methyl-4-(1H-pyrazol-4-yl)nicotinamide] | 1000 to 10000 |
| COc1nnc(NC(=O)c2cnc(C)cc2-c2cc(Cl)c([S@@+]([O-])C3CC3)cc2OC)s1 (single isomer, unassigned) [Example 318] | ≤ 200 |
| COc1nnc(NC(=O)c2ccc(C#N)cc2-c2cc(Cl)ncc2OC)s1 [Example 248, 2-(2-chloro-5-methoxypyridin-4-yl)-4-cyano-N-(5-methoxy-1,3,4-thiadiazol-2-yl)benzamide] | ≤ 200 |
| COc1nnc(NC(=O)c2cnc(C)cc2-c2cccc3ncccc23)s1 [Example 485, N-(5-methoxy-1,3,4-thiadiazol-2-yl)-6-methyl-4-(quinolin-5-yl)nicotinamide] | 200 to 500 |
| COc1cnc(Br)cc1-c1cc(C)ncc1C(=O)Nc1nnc(O[C@H]2CC[C@H](CO)CC2)s1 [Example 315, 2′-bromo-N-(5-(((1r,4r)-4-(hydroxymethyl)cyclohexyl)oxy)-1,3,4-thiadiazol-2-yl)-5′-methoxy-6-methyl-[4,4′-bipyridine]-3-carboxamide] | ≤ 200 |
| COc1nnc(NC(=O)c2cnc(C)cc2-c2cccc(C)c2F)s1 [Example 414, 4-(2-fluoro-3-methylphenyl)-N-(5-methoxy-1,3,4-thiadiazol-2-yl)-6-methylpyridine-3-carboxamide] | ≤ 200 |

same assay, conditions: Table 4; Pol theta (1-899) 5 nM, ATP, dT50 ssDNA

| Compound | IC50 [nM] |
| --- | --- |
| COc1cnc(Cl)cc1-c1cc(C)ncc1C(=O)Nc1nnc(OCC(C)(C)C#N)s1 [Example 10, 2′-chloro-N-(5-(2-cyano-2-methylpropoxy)-1,3,4-thiadiazol-2-yl)-5′-methoxy-6-methyl-(4,4′-bipyridine)-3-carboxamide] | ≤ 200 |
| COc1nnc(NC(=O)c2cnc(C)cc2-c2ccnc(Cl)c2)s1 [Example 75, 2′-chloro-N-(5-methoxy-1,3,4-thiadiazol-2-yl)-6-methyl-(4,4′-bipyridine)-3-carboxamide] | ≤ 200 |
| COc1cnc(Cl)cc1-c1cc(C)ncc1C(=O)Nc1nnc(OC2CCCCC2)s1 [Example 12, 2′-chloro-N-(5-(cyclohexyloxy)-1,3,4-thiadiazol-2-yl)-5′-methoxy-6-methyl-(4,4′-bipyridine)-3-carboxamide] | ≤ 200 |
| COc1nnc(NC(=O)c2cnc(C)cc2-c2cc(C)ncc2C)s1 [Example 56, N-(5-methoxy-1,3,4-thiadiazol-2-yl)-2′,5′,6-trimethyl-(4,4′-bipyridine)-3-carboxamide] | 200 to 500 |
| COCCOc1nnc(NC(=O)c2ccncc2-c2ccccc2OC)s1 [Example 78] | 500 to 1000 |
| COc1nnc(NC(=O)c2cnc(C)cc2-c2ccccc2OC)s1 [Example 54, N-(5-methoxy-1,3,4-thiadiazol-2-yl)-4-(2-methoxyphenyl)-6-methylnicotinamide] | 500 to 1000 |
| COc1nnc(NC(=O)c2cnc(C)cc2-c2cc3[nH]ncc3cc2OC)s1 [Example 67, N-(5-methoxy-1,3,4-thiadiazol-2-yl)-4-(5-methoxy-1H-indazol-6-yl)-6-methylnicotinamide] | 1000 to 10000 |
| COc1cnc(Cl)cc1-c1cc(C)ncc1C(=O)Nc1nnc(OCC(C)(C)O)s1 [Example 14, 2′-chloro-N-(5-(2-hydroxy-2-methylpropoxy)-1,3,4-thiadiazol-2-yl)-5′-methoxy-6-methyl-(4,4′-bipyridine)-3-carboxamide] | ≤ 200 |
| C#CCOc1nnc(NC(=O)c2ccncc2-c2ccccc2OC)s1 [Example 1, 3-(2-methoxyphenyl)-N-(5-(prop-2-yn-1-yloxy)-1,3,4-thiadiazol-2-yl)isonicotinamide] | ≤ 200 |

same assay, conditions: Table 5; Pol theta (1-899) 5 nM, ATP, dT50 ssDNA

| Compound | IC50 [nM] |
| --- | --- |
| COc1cnc(Br)cc1-c1cc(C)ncc1C(=O)Nc1nnc(O[C@@H]2CCOC2)s1 [Example 84] | ≤ 200 |
| COc1cnc(Cl)cc1-c1cc(C)ncc1C(=O)Nc1nnc(O[C@H]2CC[C@@H](C(C)(C)O)CC2)s1 [Example 175, 2′-chloro-N-(5-(((1s,4s)-4-(2-hydroxypropan-2-yl)cyclohexyl)oxy)-1,3,4-thiadiazol-2-yl)-5′-methoxy-6-methyl-(4,4′-bipyridine)-3-carboxamide] | ≤ 200 |
| Cc1cc(-c2cc(Cl)ncc2OC(F)F)c(C(=O)Nc2nnc(O[C@@H]3COC4(CC4)C3)s2)cn1 (single isomer, unassigned) [Example 232] | ≤ 200 |
| COc1cnc(Cl)cc1-c1cc(C)ncc1C(=O)Nc1nnc(O[C@@H]2CC[C@H]2O)s1 (single isomer, unassigned) [Example 114] | ≤ 200 |
| COc1cnc(Cl)c(F)c1-c1cc(C)ncc1C(=O)Nc1nnc(O[C@@H]2CCO[C@@H]2C)s1 (single isomer, unassigned) [Example 166] | ≤ 200 |
| COc1nnc(NC(=O)c2cnc(C)cc2-c2c(OC)cnc(Cl)c2C)s1 [Example 79, 2′-chloro-5′-methoxy-N-(5-methoxy-1,3,4-thiadiazol-2-yl)-3′,6-dimethyl-(4,4′-bipyridine)-3-carboxamide] | 200 to 500 |
| COc1cnc(Cl)cc1-c1cc(C)ncc1C(=O)Nc1nnc(O[C@@]2(C)CCOC2)s1 (single isomer, unassigned) [Example 138] | ≤ 200 |
| COc1cnc(Cl)cc1-c1cc(C)ncc1C(=O)Nc1nnc(O[C@H]2C[C@@H](OC)C2)s1 (single isomer, unassigned) [Example 132, 2′-chloro-5′-methoxy-N-(5-((1s,3s)-3-methoxycyclobutoxy)-1,3,4-thiadiazol-2-yl)-6-methyl-(4,4′-bipyridine)-3-carboxamide] | ≤ 200 |
| COc1cnc(Cl)cc1-c1cc(C)ncc1C(=O)Nc1nnc(O[C@H]2COC3(CC3)C2)s1 (single isomer, unassigned) [Example 117] | ≤ 200 |
